In the supplement of paper PMC10307832:

What was measured:
Test in all cases: relative viability (nuclei count vs DMSO), 5 days (fraction); higher = more cells survive
[1] = compound: CC1CC(=O)N(C2=CN=C(N=C2N1C3CCCC3)NC4=C(C=C(C=C4)C(=O)NC5CCN(CC5)C)OC)C [NPK76-II-72-1] + CS(=O)(=O)CCNCc1ccc(-c2ccc3ncnc(Nc4ccc(OCc5cccc(F)c5)c(Cl)c4)c3c2)o1 [Lapatinib] (partner 2 µM)
In short: (§1)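 Medians of duplicate plates are given as relative viability. That measure is the nuclei count in treated wells divided by the count in vehicle wells. Counts were taken on 4× images of lung cancer cell lines in 1536-well plates, 5 days after pin-tool dosing the day after seeding with one drug alone or a fixed anchor-drug dose plus five library-drug doses (not always all listed) in √10 steps.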

BI-2536 + Lapatinib = compound: CC[C@@H]1C(=O)N(C)c2cnc(Nc3ccc(C(=O)NC4CCN(C)CC4)cc3OC)nc2N1C1CCCC1 [BI-2536] + CS(=O)(=O)CCNCc1ccc(-c2ccc3ncnc(Nc4ccc(OCc5cccc(F)c5)c(Cl)c4)c3c2)o1 [Lapatinib] (partner 2 µM)
In short: as §1

BI-2536 + Alpelisib = compound: CC[C@@H]1C(=O)N(C)c2cnc(Nc3ccc(C(=O)NC4CCN(C)CC4)cc3OC)nc2N1C1CCCC1 [BI-2536] + Cc1nc(NC(=O)N2CCC[C@H]2C(N)=O)sc1-c1ccnc(C(C)(C)C(F)(F)F)c1 [Alpelisib] (partner 2 µM)
In short: as §1

[2] = compound: CC1CC(=O)N(C2=CN=C(N=C2N1C3CCCC3)NC4=C(C=C(C=C4)C(=O)NC5CCN(CC5)C)OC)C [NPK76-II-72-1] + CS(=O)(=O)N1CCN(Cc2cc3nc(-c4cccc5[nH]ncc45)nc(N4CCOCC4)c3s2)CC1 [Pictilisib] (partner 1 µM)
In short: as §1

NCI-H650 was tested, and the relative viability ([1]; first compound 0.01 µM) was 1.17, the relative viability ([1]; first compound 0.03162 µM) was 0.912 and the relative viability ([1]; first compound 0.1 µM) was 0.723. For the same cell line, the relative viability ([1]; first compound 1 µM) was 0.925, the relative viability (BI-2536 + Lapatinib; first compound 0.01 µM) was 0.882 and the relative viability (BI-2536 + Lapatinib; first compound 0.03162 µM) was 0.85. For the same cell line, the relative viability (BI-2536 + Lapatinib; first compound 0.1 µM) was 0.166, the relative viability (BI-2536 + Lapatinib; first compound 0.3162 µM) was 0.214 and the relative viability (BI-2536 + Lapatinib; first compound 1 µM) was 0.151. The relative viability (BI-2536 + Alpelisib; first compound 0.01 µM) was 1.02, the relative viability (BI-2536 + Alpelisib; first compound 0.03162 µM) was 0.778 and the relative viability (BI-2536 + Alpelisib; first compound 0.1 µM) was 0.437. For the same cell line, the relative viability (BI-2536 + Alpelisib; first compound 0.3162 µM) was 0.218, the relative viability (BI-2536 + Alpelisib; first compound 1 µM) was 0.127 and the relative viability ([2]; first compound 0.01 µM) was 0.804. For the same cell line, the relative viability ([2]; first compound 0.03162 µM) was 0.88, the relative viability ([2]; first compound 0.1 µM) was 0.71 and the relative viability ([2]; first compound 1 µM) was 1.21.

Cell Line NCI-H661 has a relative viability ([1]; first compound 0.01 µM) of 0.398, a relative viability ([1]; first compound 0.03162 µM) of 0.532 and a relative viability ([1]; first compound 0.1 µM) of 0.562. For the same cell line, the relative viability ([1]; first compound 0.3162 µM) was 0.473, the relative viability ([1]; first compound 1 µM) was 0.513 and the relative viability (BI-2536 + Lapatinib; first compound 0.01 µM) was 0.498. It also gave a relative viability (BI-2536 + Lapatinib; first compound 0.03162 µM) of 0.543, a relative viability (BI-2536 + Lapatinib; first compound 0.1 µM) of 0.398 and a relative viability (BI-2536 + Lapatinib; first compound 0.3162 µM) of 0.224. The relative viability (BI-2536 + Lapatinib; first compound 1 µM) was 0.179, the relative viability (BI-2536 + Alpelisib; first compound 0.01 µM) was 0.149 and the relative viability (BI-2536 + Alpelisib; first compound 0.03162 µM) was 0.577. It also gave a relative viability (BI-2536 + Alpelisib; first compound 0.1 µM) of 0.619, a relative viability (BI-2536 + Alpelisib; first compound 0.3162 µM) of 0.216 and a relative viability (BI-2536 + Alpelisib; first compound 1 µM) of 0.24. The relative viability ([2]; first compound 0.01 µM) was 0.416, the relative viability ([2]; first compound 0.03162 µM) was 0.422 and the relative viability ([2]; first compound 0.1 µM) was 0.422. For the same cell line, the relative viability ([2]; first compound 1 µM) was 0.508.

NCI-H1793 showed a relative viability ([1]; first compound 0.01 µM) of 0.64, a relative viability ([1]; first compound 0.03162 µM) of 0.91 and a relative viability ([1]; first compound 0.1 µM) of 0.823. The relative viability ([1]; first compound 0.3162 µM) was 0.503, the relative viability ([1]; first compound 1 µM) was 0.751 and the relative viability (BI-2536 + Lapatinib; first compound 0.01 µM) was 0.581. It also gave a relative viability (BI-2536 + Lapatinib; first compound 0.03162 µM) of 0.507, a relative viability (BI-2536 + Lapatinib; first compound 0.1 µM) of 0.256 and a relative viability (BI-2536 + Lapatinib; first compound 1 µM) of 0.193. For the same cell line, the relative viability (BI-2536 + Alpelisib; first compound 0.01 µM) was 0.785, the relative viability (BI-2536 + Alpelisib; first compound 0.03162 µM) was 0.639 and the relative viability (BI-2536 + Alpelisib; first compound 0.1 µM) was 0.469. For the same cell line, the relative viability (BI-2536 + Alpelisib; first compound 0.3162 µM) was 0.204, the relative viability (BI-2536 + Alpelisib; first compound 1 µM) was 0.165 and the relative viability ([2]; first compound 0.01 µM) was 0.309. For the same cell line, the relative viability ([2]; first compound 0.03162 µM) was 0.472, the relative viability ([2]; first compound 0.1 µM) was 0.483 and the relative viability ([2]; first compound 0.3162 µM) was 0.332. It also gave a relative viability ([2]; first compound 1 µM) of 0.257.

NCI-H1734 gave a relative viability ([1]; first compound 0.01 µM) of 1.02, a relative viability ([1]; first compound 0.03162 µM) of 1.11 and a relative viability ([1]; first compound 0.1 µM) of 1.16. The relative viability ([1]; first compound 0.3162 µM) was 1.03, the relative viability ([1]; first compound 1 µM) was 1.17 and the relative viability (BI-2536 + Lapatinib; first compound 0.01 µM) was 1.04. For the same cell line, the relative viability (BI-2536 + Lapatinib; first compound 0.03162 µM) was 0.81, the relative viability (BI-2536 + Lapatinib; first compound 0.1 µM) was 0.427 and the relative viability (BI-2536 + Lapatinib; first compound 0.3162 µM) was 0.205. For the same cell line, the relative viability (BI-2536 + Lapatinib; first compound 1 µM) was 0.206, the relative viability (BI-2536 + Alpelisib; first compound 0.01 µM) was 0.634 and the relative viability (BI-2536 + Alpelisib; first compound 0.03162 µM) was 0.777. It also gave a relative viability (BI-2536 + Alpelisib; first compound 0.1 µM) of 0.51, a relative viability (BI-2536 + Alpelisib; first compound 0.3162 µM) of 0.192 and a relative viability (BI-2536 + Alpelisib; first compound 1 µM) of 0.222. For the same cell line, the relative viability ([2]; first compound 0.01 µM) was 0.427, the relative viability ([2]; first compound 0.03162 µM) was 0.478 and the relative viability ([2]; first compound 0.1 µM) was 0.383. The relative viability ([2]; first compound 0.3162 µM) was 0.411 and the relative viability ([2]; first compound 1 µM) was 0.446.

LXF-289 gave a relative viability ([1]; first compound 0.01 µM) of 0.881, a relative viability ([1]; first compound 0.03162 µM) of 0.91 and a relative viability ([1]; first compound 0.1 µM) of 0.891. For the same cell line, the relative viability ([1]; first compound 0.3162 µM) was 0.934, the relative viability ([1]; first compound 1 µM) was 0.889 and the relative viability (BI-2536 + Lapatinib; first compound 0.01 µM) was 0.889. It also gave a relative viability (BI-2536 + Lapatinib; first compound 0.03162 µM) of 0.839, a relative viability (BI-2536 + Lapatinib; first compound 0.1 µM) of 0.443 and a relative viability (BI-2536 + Lapatinib; first compound 0.3162 µM) of 0.0583. For the same cell line, the relative viability (BI-2536 + Lapatinib; first compound 1 µM) was 0.0798, the relative viability (BI-2536 + Alpelisib; first compound 0.01 µM) was 1.02 and the relative viability (BI-2536 + Alpelisib; first compound 0.03162 µM) was 0.975. It also gave a relative viability (BI-2536 + Alpelisib; first compound 0.1 µM) of 0.519, a relative viability (BI-2536 + Alpelisib; first compound 0.3162 µM) of 0.0396 and a relative viability (BI-2536 + Alpelisib; first compound 1 µM) of 0.0625. For the same cell line, the relative viability ([2]; first compound 0.01 µM) was 0.791, the relative viability ([2]; first compound 0.03162 µM) was 0.819 and the relative viability ([2]; first compound 0.1 µM) was 0.796. The relative viability ([2]; first compound 0.3162 µM) was 0.772 and the relative viability ([2]; first compound 1 µM) was 0.776.

Cell Line H3255 has a relative viability ([1]; first compound 0.01 µM) of 0.263, a relative viability ([1]; first compound 0.03162 µM) of 0.25 and a relative viability ([1]; first compound 0.1 µM) of 0.217. The relative viability ([1]; first compound 1 µM) was 0.226, the relative viability (BI-2536 + Lapatinib; first compound 0.01 µM) was 0.256 and the relative viability (BI-2536 + Lapatinib; first compound 0.03162 µM) was 0.225. The relative viability (BI-2536 + Lapatinib; first compound 0.1 µM) was 0.076, the relative viability (BI-2536 + Lapatinib; first compound 0.3162 µM) was 0.117 and the relative viability (BI-2536 + Lapatinib; first compound 1 µM) was 0.143. For the same cell line, the relative viability (BI-2536 + Alpelisib; first compound 0.01 µM) was 0.691, the relative viability (BI-2536 + Alpelisib; first compound 0.03162 µM) was 0.492 and the relative viability (BI-2536 + Alpelisib; first compound 0.1 µM) was 0.37. For the same cell line, the relative viability (BI-2536 + Alpelisib; first compound 0.3162 µM) was 0.252, the relative viability (BI-2536 + Alpelisib; first compound 1 µM) was 0.241 and the relative viability ([2]; first compound 0.01 µM) was 0.449. It also gave a relative viability ([2]; first compound 0.03162 µM) of 0.449, a relative viability ([2]; first compound 0.1 µM) of 0.476 and a relative viability ([2]; first compound 0.3162 µM) of 0.251. It also gave a relative viability ([2]; first compound 1 µM) of 0.481.

Cell Line 201T has a relative viability ([1]; first compound 0.01 µM) of 0.975, a relative viability ([1]; first compound 0.03162 µM) of 1.07 and a relative viability ([1]; first compound 0.1 µM) of 1.04. The relative viability ([1]; first compound 0.3162 µM) was 1.11, the relative viability ([1]; first compound 1 µM) was 1 and the relative viability (BI-2536 + Lapatinib; first compound 0.01 µM) was 0.946. For the same cell line, the relative viability (BI-2536 + Lapatinib; first compound 0.03162 µM) was 1.03, the relative viability (BI-2536 + Lapatinib; first compound 0.1 µM) was 1.03 and the relative viability (BI-2536 + Lapatinib; first compound 0.3162 µM) was 1.04. It also gave a relative viability (BI-2536 + Lapatinib; first compound 1 µM) of 0.38, a relative viability (BI-2536 + Alpelisib; first compound 0.01 µM) of 0.997 and a relative viability (BI-2536 + Alpelisib; first compound 0.03162 µM) of 1.03. It also gave a relative viability (BI-2536 + Alpelisib; first compound 0.1 µM) of 0.973, a relative viability (BI-2536 + Alpelisib; first compound 0.3162 µM) of 0.441 and a relative viability (BI-2536 + Alpelisib; first compound 1 µM) of 0.285. The relative viability ([2]; first compound 0.01 µM) was 0.642, the relative viability ([2]; first compound 0.03162 µM) was 0.618 and the relative viability ([2]; first compound 0.1 µM) was 0.66. The relative viability ([2]; first compound 0.3162 µM) was 0.7 and the relative viability ([2]; first compound 1 µM) was 0.677.
